We go through five molecules from US10370409B2, “Synthesis of libraries of peptide tertiary amides” (The Scripps Research Institute, priority 2011, dated 2019).

Like-named read-outs stand apart in the source and are kept apart here. Numbered stars: 1 amine (or outer) side, 2 acyl side, 3 side chain; on linkers, the order of the positions; unused ones are H or OH. Square brackets hold non-standard residues; d marks the D form. Peptide text beside a SMILES is read from it. X1 = COc1ccc(CN([C@@H](C)C(=O)[*:2])[*:1])cc1OC; Gly(Nα-4-F-phenethyl) = O=C(O)CNCCc1ccc(F)cc1; X3 = COc1ccc(CN(CC(=O)[*:2])[*:1])cc1OC; X2 = C[C@@H](C(=O)[*:2])N(CCCCN)[*:1]; Gly(N-propargyl) = C#CCNCC(=O)O; NFurfurylGly = O=C(O)CNCc1ccco1; Nlys = NCCCCNCC(=O)O

Experiment [1] deals with scFv PX4-4. Description: Fluorescence polarization / anisotropy titration of fluorescein-labelled compounds with PX4-4. The experiment is classed as binding, human. As to conditions: for Kd: FP titration with PX4-4. On the procedure:
Hits identification: All 17 hits were cleaved using CNBr and then characterized by MALDI mass spectrum. All 17 structures were resynthesized and examined against PX4-4 with FP assay. Only one hit was identified as binder with a Kd <10 μM.
(§1) The affinity of compound 13 for PX4-4 was determined by fluorescence anisotropy.
96 beads were chosen randomly from the library and placed individually into the wells of a 96-well filter plate. Each well was treated with fluorescein azide and a copper catalyst to attach fluorescein to the alkyne handle and then the compounds were cleaved from beads. The beads were filtered out and the soluble compounds were used for the fluorescence polarization (FP) assay. All 27 possible structures were found in this collection of molecules by tandem MS sequencing. Semi-quantitative binding constants for the PX4-4 antibody all 27 of the compounds were determined by titrating the compounds with the protein in the microwell format and monitoring the increase in FP. […] Most of the curves approached saturation, allowing for an accurate determination of the KD. In contrast, compound A41, corresponding to peptoid 14), was not saturated in the tested protein concentration range (100 nM to 400 μM) (FIG. 9B).

The test system of experiment [2] is whole human IgG. Put plainly: Fluorescence polarization selectivity test with a mixture of human IgG. The experiment is classed as binding. To be noted: FP experiment repeated using a mixture of human IgG; FIG. 9B. On the procedure:
as §1
To address the selectivity of compounds A14 (N,R,S configuration), A7 (N,S,S), A68 (R,S,R), A41(N,N,N) and A24 (R,R,R) for PX4-4, the FP experiment was repeated using a mixture of human IgG as we did previously for compound 13. […] This implies that greater conformational flexibility is associated with binding promiscuity.
(In general: In fluorescence polarisation assays a small probe gives low polarisation when free and higher when bound to something large.)

[3] abbreviates: semi-quantitative, compounds cleaved from single beads, 96-well microwell format, read-out: Kd-96.
The mark [4] stands for this setting: re-synthesized and purified compounds, read-out: Kd-re.

As a reminder, the Kd is the concentration at which binding is half-saturated.

As to `C#CCN(CC(=O)N(CCCCN)CC(=O)N(CC(N)=O)Cc1ccco1)C(=O)CN(CCCCN)C(=O)CN(CCc1ccc(F)cc1)C(=O)CN(CCCCN)C(=O)CNCc1ccc(OC)c(OC)c1` [A41] (H-[X3][Nlys][Gly(Nα-4-F-phenethyl)][Nlys][Gly(N-propargyl)][Nlys][NFurfurylGly]-NH2), in experiment [1] (protein concentration range 100 nM to 400 μM, FIG. 9B), the “saturation of FP binding curve with PX4-4” value was “not saturated”. Also, in experiment [1] (setting [3]), the Kd was 113 µM.

Take `C#CCN(CC(=O)N(CCCCN)CC(=O)N(CC(N)=O)Cc1ccco1)C(=O)CN(CCCCN)C(=O)CN(CCc1ccc(F)cc1)C(=O)[C@H](C)N(CCCCN)C(=O)[C@H](C)NCc1ccc(OC)c(OC)c1` [A7] (H-[X1][X2][Gly(Nα-4-F-phenethyl)][Nlys][Gly(N-propargyl)][Nlys][NFurfurylGly]-NH2): in experiment [2], the “binding with whole human IgG” value was “no binding”. For the same molecule, the dissociation constant Kd in experiment [1] (setting [4]) worked out at 25.4 µM; in experiment [1] (setting [3]) it was 40.9 µM.

Regarding `[2H]C([2H])([2H])[C@@]([2H])(NCc1ccc(OC)c(OC)c1)C(=O)N(CCCCN)[C@@H](C)C(=O)N(CCc1ccc(F)cc1)[C@@]([2H])(C(=O)N(CCCCN)CC(=O)N(CC#C)CC(=O)N(CCCCN)CC(=O)N(CC(N)=O)Cc1ccco1)C([2H])([2H])[2H]` [A68], the “binding with whole human IgG” value in experiment [2] is recorded as “no binding”. In addition, the figures for the Kd in experiment [1] (setting [4]) and in experiment [1] (setting [3]) were 65.2 µM and 43.2 µM, respectively.

Regarding `[2H]C([2H])([2H])[C@@]([2H])(NCc1ccc(OC)c(OC)c1)C(=O)N(CCCCN)[C@@]([2H])(C(=O)N(CCc1ccc(F)cc1)[C@@]([2H])(C(=O)N(CCCCN)CC(=O)N(CC#C)CC(=O)N(CCCCN)CC(=O)N(CC(N)=O)Cc1ccco1)C([2H])([2H])[2H])C([2H])([2H])[2H]` [A24], the “binding with whole human IgG” value in experiment [2] was “no binding”. Besides, the dissociation constant (Kd) in experiment [1] (setting [4]) was determined as 233 µM; in experiment [1] (setting [3]) it was 117 µM.

With `[2H]C([2H])([2H])[C@]([2H])(C(=O)N(CCc1ccc(F)cc1)CC(=O)N(CCCCN)CC(=O)N(CC#C)CC(=O)N(CCCCN)CC(=O)N(CC(N)=O)Cc1ccco1)N(CCCCN)C(=O)[C@H](C)NCc1ccc(OC)c(OC)c1` [A14], the “binding with whole human IgG” value in experiment [2] is “no binding”. Further, the Kd in experiment [1] (setting [4]) stood at 19.1 µM; in experiment [1] (setting [3]) it was 27.5 µM.
